The numbers were not newly measured in US20210002295A1, “SMALL MOLECULE DEGRADERS THAT RECRUIT DCAF15” (Dana-Farber Cancer Institute, Inc., priority 2017, published 2021), which cites them from elsewhere.

This data set has as its target bromodomains of BET proteins. The following applies: stated for small molecule BET inhibitors.

pKd: −log10 of the molar value.

With `Cc1sc2c(c1C)C(c1ccc(Cl)cc1)=N[C@@H](CC(=O)OC(C)(C)C)c1nnc(C)n1-2` [JQ1], the negative logarithm of the Kd (pKd) was about 8.00.

The term pKd denotes −log10 of the Kd, conventionally taken in molar units.
